Assay results: US9815852B2, “Macrocyclic compounds and methods of treatment” (University of Florida Research Foundation, Inc., priority 2014, dated 2017)
Read-outs that look alike come from different tables or passages of the source.

Experiments:
Type in all cases: biochemical
[1] = molecular target: HDAC1 (Homo sapiens, UniProt Q13547); assay: HDAC enzyme inhibitory assay (fluorescence), HDAC1
Method: (§1) Enzyme inhibitory assays were carried out essentially as follows. In brief, compounds were incubated with the appropriate HDAC enzyme, the appropriate HDAC substrate, bovine serum albumin, and HDAC buffer. Duplicate reactions were carried out at 37° C. for 30 min. The reactions were quenched at the end of the incubation period with the addition of HDAC developer. Reactions were further incubated for 15 min at room temperature prior to fluorescence measurement (ex 360 nm/em 460 nm). The % inhibitory activity was calculated according to the equation (F−Fb)/(Ft−Fb), where F—fluorescent intensity of compound treated wells, Fb—fluorescent intensity of blank wells, Ft—fluorescent intensity of solvent control wells. IC50 values were calculated using GraphPad Prism.

[2] = tested on: class I HDACs; assay: HDAC enzyme inhibitory assay, class I HDACs overall; settings: class I HDACs tested (HDAC1, 2, 3, 8)
Method: as §1, with “Reactions were further incubated for 15 min at room temperature prior to fluorescence measurement (ex 360 nm/em 460 nm).” left out

[3] = molecular target: T1, HDAC8 (Homo sapiens, UniProt Q9BY41); assay: HDAC enzyme inhibitory assay (fluorescence), HDAC8
T1 sequence (Q9BY41 1-377): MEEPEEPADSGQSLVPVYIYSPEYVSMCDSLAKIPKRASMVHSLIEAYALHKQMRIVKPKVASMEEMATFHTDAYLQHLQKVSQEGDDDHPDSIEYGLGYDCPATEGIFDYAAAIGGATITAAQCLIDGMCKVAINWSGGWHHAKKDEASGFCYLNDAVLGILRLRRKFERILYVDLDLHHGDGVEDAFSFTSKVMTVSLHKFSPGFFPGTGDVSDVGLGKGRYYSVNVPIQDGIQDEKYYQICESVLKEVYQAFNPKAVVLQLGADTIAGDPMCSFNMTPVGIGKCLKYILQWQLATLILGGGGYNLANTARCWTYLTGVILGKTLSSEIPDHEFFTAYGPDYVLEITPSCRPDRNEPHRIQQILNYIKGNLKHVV
Method: as §1

[4] = molecular target: HDAC2 (Homo sapiens, UniProt Q92769); assay: HDAC enzyme inhibitory assay (fluorescence), HDAC2; settings: for IC50 (HDAC2)/IC50 (HDAC1): selectivity ratio, table
HDAC2, sequence (Q92769 whole entry, species assumed): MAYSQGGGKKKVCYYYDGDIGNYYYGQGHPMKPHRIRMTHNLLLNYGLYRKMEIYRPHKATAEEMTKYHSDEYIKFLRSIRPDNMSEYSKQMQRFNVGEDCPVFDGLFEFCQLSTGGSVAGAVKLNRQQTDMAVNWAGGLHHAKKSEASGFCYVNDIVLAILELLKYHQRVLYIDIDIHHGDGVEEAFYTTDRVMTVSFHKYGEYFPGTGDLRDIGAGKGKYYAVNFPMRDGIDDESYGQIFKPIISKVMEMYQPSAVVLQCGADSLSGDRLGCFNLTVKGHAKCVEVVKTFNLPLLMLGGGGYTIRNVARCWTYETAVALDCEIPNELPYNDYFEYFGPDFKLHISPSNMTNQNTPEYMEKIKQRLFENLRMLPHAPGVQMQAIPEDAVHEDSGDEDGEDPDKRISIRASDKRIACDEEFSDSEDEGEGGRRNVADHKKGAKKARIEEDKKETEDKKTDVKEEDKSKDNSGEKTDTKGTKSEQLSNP
Method: as §1

[5] = molecular target: HDAC3 (Homo sapiens, UniProt O15379); assay: HDAC enzyme inhibitory assay (fluorescence), HDAC3; settings: for IC50 (HDAC3)/IC50 (HDAC1): selectivity ratio, table
HDAC3, sequence (O15379 whole entry, species assumed): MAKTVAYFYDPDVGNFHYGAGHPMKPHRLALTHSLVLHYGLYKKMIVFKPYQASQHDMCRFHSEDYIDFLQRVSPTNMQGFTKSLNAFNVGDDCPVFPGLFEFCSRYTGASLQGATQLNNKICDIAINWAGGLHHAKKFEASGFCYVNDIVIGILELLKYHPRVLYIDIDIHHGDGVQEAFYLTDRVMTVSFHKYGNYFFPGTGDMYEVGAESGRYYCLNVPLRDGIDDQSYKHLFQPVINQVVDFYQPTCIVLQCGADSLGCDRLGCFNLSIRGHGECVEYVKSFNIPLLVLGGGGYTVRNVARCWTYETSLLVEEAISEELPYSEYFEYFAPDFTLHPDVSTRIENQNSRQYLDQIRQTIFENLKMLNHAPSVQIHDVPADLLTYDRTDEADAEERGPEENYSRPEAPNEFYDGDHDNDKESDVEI
HDAC3, sequence (Q9Y618 395-489 partner limits assumed, species assumed): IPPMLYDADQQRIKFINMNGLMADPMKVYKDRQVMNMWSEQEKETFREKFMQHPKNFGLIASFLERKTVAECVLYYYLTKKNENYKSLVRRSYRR
Method: as §1

[6] = read-out: IC50 HDAC8, 'No Inhibition up to 1 μM', no inhibition up to highest concentration 1 μM
[7] = no inhibition up to highest concentration 1 μM

HDAC1, sequence (Q13547 whole entry, species assumed): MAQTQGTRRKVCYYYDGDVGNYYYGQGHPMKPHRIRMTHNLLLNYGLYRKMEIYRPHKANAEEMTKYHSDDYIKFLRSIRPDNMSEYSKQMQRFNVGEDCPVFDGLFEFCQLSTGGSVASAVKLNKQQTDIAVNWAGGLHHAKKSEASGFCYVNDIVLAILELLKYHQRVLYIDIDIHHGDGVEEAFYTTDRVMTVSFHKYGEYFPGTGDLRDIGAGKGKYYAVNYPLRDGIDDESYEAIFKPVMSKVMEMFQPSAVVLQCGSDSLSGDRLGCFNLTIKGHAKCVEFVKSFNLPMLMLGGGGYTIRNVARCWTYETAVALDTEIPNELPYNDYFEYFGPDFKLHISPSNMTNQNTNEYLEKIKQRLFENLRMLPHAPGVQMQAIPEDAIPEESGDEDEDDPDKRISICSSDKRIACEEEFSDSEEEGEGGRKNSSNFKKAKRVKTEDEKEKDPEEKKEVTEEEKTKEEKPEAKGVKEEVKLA

Row | Structure (SMILES) | IC50 [1] | IC50 [3, 6] | IC50 [4] | IC50 (HDAC2)/IC50 (HDAC1) [4] | IC50 [5] | IC50 (HDAC3)/IC50 (HDAC1) [5] | IC50 [3, 7] | other results
1 | CC12CSC(=N1)c1csc(n1)CNC(=O)CC(C=CCCS)OC(=O)C(CC(=O)O)NC2=O (centres unmarked) [Compound 6] | 39 nM | > 1000 nM |  |  |  |  |  | HDAC inhibition, potency in words [2]: significant reduction in activity
2 | CC12CSC(=N1)c1csc(n1)CNC(=O)CC(C=CCCS)OC(=O)C(Cc1ccccc1)NC2=O (centres unmarked) [Compound 3] | 0.29 nM | > 1000 nM |  |  |  |  |  | 
3 | CC(C)(C)OC(=O)NCCC1NC(=O)C2(C)CSC(=N2)c2csc(n2)CNC(=O)CC(C=CCCS)OC1=O (centres unmarked) [Compound 9] | 2.3 nM | > 1000 nM | 3.1 nM | 1.4 | 4.2 nM | 1.8 |  | 
4 | CC(C)(C)OC(=O)NCCCC1NC(=O)C2(C)CSC(=N2)c2csc(n2)CNC(=O)CC(C=CCCS)OC1=O (centres unmarked) [Compound 10] | 0.96 nM |  | 1.4 nM | 1.5 | 1.8 nM | 1.9 |  | HDAC inhibition, potency in words [2]: more potent than 9; IC50 ([3]; read-out: IC50 (nM) HDAC8): 790 nM
5 | CC12CSC(=N1)c1csc(n1)CNC(=O)CC(C=CCCS)OC(=O)C(Cc1c[nH]cn1)NC2=O (centres unmarked) [Compound 5] | 0.2 nM | > 1000 nM | 1.4 nM | 7.0 | 1.1 nM | 5.5 |  | selectivity towards HDAC1 over HDAC2 [4]: 7 fold; selectivity towards HDAC1 over HDAC3 [5]: 5.5 fold
6 | C[C@@]12CSC(=N1)c1csc(n1)CNC(=O)C[C@@H](/C=C/CCS)OC(=O)[C@H](Cc1ccc(O)cc1)NC2=O [Compound 4] |  |  |  |  |  |  | > 1000 nM | 
7 | C[C@@]12CSC(=N1)c1csc(n1)CNC(=O)C[C@@H](/C=C/CCS)OC(=O)[C@H](CCCN)NC2=O [Compound 8] |  |  |  |  |  |  | > 1000 nM | 
8 | C[C@@]12CSC(=N1)c1csc(n1)CNC(=O)C[C@@H](/C=C/CCS)OC(=O)[C@H](CCN)NC2=O [Compound 7] |  |  |  |  |  |  | > 1000 nM | 
